Experiment: in vitro
Conditions: human, hela cells, % viability

| Compound | viability at 28.5 h, 10 µM | viability at 28.5 h, 10 µM (bulk resorufin, single well) |
| --- | --- | --- |
| CCN1CCN(CCOc2c(OC)cccc2OC)CC1 [CBK267375G] | 96.9% |  |
| Cc1ccc(S(=O)(=O)Nc2cccc3ccccc23)c([N+](=O)[O-])c1 [CBK267381] | 71.9% |  |
| O=C(CSc1nnc(Cc2cccc3ccccc23)n1-c1ccccc1)NC1CC1 [CBK267382] | 86.3% |  |
| CN(C)S(=O)(=O)c1ccc(C(=O)Nc2ccc(N3CCOCC3)c(Cl)c2)cc1 [CBK267383] | 87.7% |  |
| CN(CC(=O)NNC(=O)c1cccnc1)S(=O)(=O)c1cc(Cl)ccc1Cl [CBK267388] | 92.2% |  |
| O=C(NCCOc1cccc(Cl)c1Cl)c1ccccc1-c1ccccc1 [CBK267390] | 40.6% |  |
| Cc1ccc(C)c(OCCNS(=O)(=O)c2cc([N+](=O)[O-])ccc2C)c1 [CBK267393] | 87.1% |  |
| N#Cc1cccc(CSc2nnc(-c3ccccc3O)n2Cc2ccccc2)c1 [CBK267395] | 85.8% |  |
| O=C(Nc1ccccc1)c1ccccc1OCc1ccc(S(=O)(=O)N2CCOCC2)cc1 [CBK267396] | 92.8% |  |
| O=C(O)Cc1ccc(NC(=O)c2cccnc2C(=O)O)cc1 [CBK267397] | 97.2% |  |
| CCCC(=O)Nc1ccccc1NC(=O)c1cccc([N+](=O)[O-])c1C [CBK267398] | 92.1% |  |
| O=C(NNC(=O)c1ccc2c(c1)C(=O)N(Cc1ccco1)C2=O)c1cccnc1 [CBK267403] | 91% |  |
| CC(C)(c1ccccc1)c1ccc(OCc2ccc(S(=O)(=O)N3CCOCC3)cc2)cc1 [CBK267407] | 96.8% |  |
| Nc1nc(CSc2nnc(Cc3ccc([N+](=O)[O-])cc3)n2-c2ccccc2)cs1 [CBK267408] | 93.5% |  |
| CN(CC(=O)NNC(=O)c1cccs1)S(=O)(=O)c1ccc2ccccc2c1 [CBK267409] | 90.8% |  |
| Cc1ccc(S(=O)(=O)Nc2ccc(S(=O)(=O)Nc3nccs3)cc2)c([N+](=O)[O-])c1 [CBK267410] | 85.9% |  |
| O=C(OCc1ccc(S(=O)(=O)N2CCOCC2)cc1)c1cc(-c2ccccc2)nc2ccccc12 [CBK267411] | 89.6% |  |
| COc1ccc(CCNS(=O)(=O)c2cc([N+](=O)[O-])ccc2C)cc1OC [CBK267412] | 94.2% |  |
| C/C=C/c1ccc(OCCCSc2nc(C)cc(O)n2)c(OC)c1 [CBK267413] | 93.5% |  |
| COc1ccc(CC(=O)Nc2ccc(-c3nnc(-c4ccccc4)o3)cc2)cc1OC [CBK267414] | 94.9% |  |
| O=C(Nc1ccc(O)cc1C(=O)O)c1ccc2c(c1)C(=O)N(Cc1ccco1)C2=O [CBK267418] | 103% |  |

| Compound | viability at 28.5 h, 10 µM | viability at 28.5 h, 10 µM (bulk resorufin, single well) |
| --- | --- | --- |
| Cc1ccc(NC(=O)CSc2nnc(C(O)c3ccccc3)n2-c2ccccc2)c(Br)c1 (stereo not drawn) [CBK267421] | 89.8% |  |
| CN(CC(=O)Nc1ccc([N+](=O)[O-])cc1)S(=O)(=O)c1ccc2ccccc2c1 [CBK267422] | 92.7% |  |
| COc1ccc(CSCc2n[nH]c(=O)[nH]2)cc1[N+](=O)[O-] [CBK267425] | 101% |  |
| Oc1n[nH]c(CSCc2ccccc2Cl)n1 [CBK267427] | 87.6% |  |
| CC(Oc1ccccc1)C(=O)N1CCN(CCO)CC1 (stereo not drawn) [CBK267428] | 98.6% |  |
| Cc1nn(C)c(C)c1NC(=O)CSc1nnc(-c2cccc(Br)c2)n1-c1ccccc1 [CBK267430] | 103% |  |
| CC(Oc1ccc(C(C)(C)C)cc1)C(=O)Nc1nnc[nH]1 (stereo not drawn) [CBK267431] | 94.8% |  |
| CN(CC(=O)Nc1ccccc1-c1ccccc1)S(=O)(=O)c1ccc2ccccc2c1 [CBK267432] | 104% |  |
| O=C(O)CNC(=O)c1ccc(S(=O)(=O)N2CCCC2)cc1 [CBK267434] | 87% |  |
| COc1cc(NC(=O)c2ccc3c(c2)C(=O)N(Cc2ccco2)C3=O)c(C(=O)O)cc1OC [CBK267436] | 105% |  |
| O=C(O)CNC(=O)c1ccc(S(=O)(=O)N2CCOCC2)cc1 [CBK267437] | 112% |  |
| O=C1CC(N2CCC(c3nc4ccccc4s3)CC2)C(=O)N1Cc1ccccc1 (stereo not drawn) [CBK267438] | 90% |  |
| COC(=O)c1ccccc1NC(=O)CSc1nnnn1C [CBK267441] | 90% |  |
| Cn1nnnc1SCC(=O)Nc1ccc(C(=O)O)cc1 [CBK267442] | 87.3% |  |
| CCOC(=O)CC(=O)CSc1nc(C)cc(-c2cccs2)c1C#N [CBK267446] | 86.6% |  |
| N#Cc1c(C(F)(F)F)cc(-c2ccco2)nc1SCc1ccccn1 [CBK267450] | 88.5% |  |
| N#Cc1c(C(F)(F)F)cc(-c2ccncc2)nc1SCCN1CCCCCC1 [CBK267451] | 85.3% |  |
| CC(Sc1nc(-c2cccnc2)ccc1C#N)C(=O)O (stereo not drawn) [CBK267452] | 90.7% |  |
| CCc1[nH]nc2c1C1(CN3CCC1CC3)C(C#N)=C(N)O2 (stereo not drawn) [CBK267454] | 101% |  |
| N#Cc1sc2nc(C34CC5CC(CC(C5)C3)C4)ccc2c1N [CBK267455] | 93.8% |  |
| COc1cccc(CSC2=C(C#N)C(c3cccs3)C(C(=O)Nc3ccccc3)=C(C)N2)c1 (stereo not drawn) [CBK267458] | 83.2% |  |

| Compound | viability at 28.5 h, 10 µM | viability at 28.5 h, 10 µM (bulk resorufin, single well) |
| --- | --- | --- |
| CCOC(=O)CC(=O)CSc1nc(C)cc(-c2cccnc2)c1C#N [CBK267460] | 94% |  |
| COc1cc2c(cc1OC)CN(C(=O)CSc1nc3c(c(-c4cccs4)c1C#N)CN(C)CC3)CC2 [CBK267462] | 91.3% |  |
| COc1cc2c(cc1OC)CN(C(=O)CSc1nc(-c3cccnc3)ccc1C#N)CC2 [CBK267464] | 69.8% |  |
| COc1ccc(NC(=O)CN2CCN(S(=O)(=O)N(C)C)CC2)cc1 [CBK267465] | 93.3% |  |
| O=S(=O)(N1CCNCC1)N1CCOCC1 [CBK267467] | 88.5% |  |
| OC(COc1cccc(Oc2ccccc2)c1)CN1CCN(c2ccccc2F)CC1 (stereo not drawn) [CBK267468] | 95.5% |  |
| O=C(c1cccc([N+](=O)[O-])c1)N1CCN(S(=O)(=O)N2CCOCC2)CC1 [CBK267469] | 100% |  |
| O=C(Cc1cccc2ccccc12)NC(=S)Nc1cccc(C(=O)O)c1 [CBK267471] | 90.7% |  |
| Cc1ccc(S(=O)(=O)NC2(C(F)(F)F)NC(=O)N(c3ccc(F)c(Cl)c3)C2=O)cc1 (stereo not drawn) [CBK267473] | 97.2% |  |
| O=C1NC(c2ccccc2)=NC1(NS(=O)(=O)c1ccccc1)C(F)(F)F (stereo not drawn) [CBK267474] | 88.3% |  |
| CC(C)(C)C(=O)NC1(C(F)(F)F)N=C(c2ccccc2)NC1=O (stereo not drawn) [CBK267475] | 88.7% |  |
| Cc1cccc(NC2(C(F)(F)F)N=C(c3ccccc3)NC2=O)n1 (stereo not drawn) [CBK267476] | 92.9% |  |
| Cc1cc(C)c2c(C)nn(-c3ccc(C(=O)O)cc3)c2n1 [CBK267480] | 89.6% |  |
| Cc1cc(C)c2c(C(C)(C)C)nn(-c3ccc(C(=O)O)cc3)c2n1 [CBK267481] | 88.4% |  |
| Cc1ccccc1C(=O)NC1(C(F)(F)F)C(=O)Nc2c1c(=O)[nH]c(=O)n2CCc1ccccc1 (stereo not drawn) [CBK267483] | 86.6% |  |
| O=C1N2CCSC2=NC1(Nc1nccs1)C(F)(F)F (stereo not drawn) [CBK267484] | 84.1% |  |
| COc1cc(C2NC(=S)NC(c3ccccc3)=C2C(=O)c2ccccc2)cc(I)c1OCCO (stereo not drawn) [CBK267485] | 86.7% |  |
| COC(=O)c1c(NC(=S)NC(=O)c2c(Br)c(C)nn2C)sc2c1CCCCCC2 [CBK267486] | 94.5% |  |
| Cc1cc(O)nc(SCC(=O)Nc2cc([N+](=O)[O-])ccc2C)n1 [CBK267488] | 97.9% |  |
| Cn1c(=O)c2c(nc(NCCO)n2CCc2ccccc2)n(C)c1=O [CBK267497] | 87.8% |  |
| Cn1c(OCc2cccnc2)nc2c1c(=O)n(Cc1ccc(Cl)c(Cl)c1)c(=O)n2C [CBK267498] | 84.2% |  |

| Compound | viability at 28.5 h, 10 µM | viability at 28.5 h, 10 µM (bulk resorufin, single well) |
| --- | --- | --- |
| COc1cccc(NC(=O)CN(c2cccc(C(C)=O)c2)S(C)(=O)=O)c1 [CBK267502] | 111% |  |
| CC1CCN(CC(CS(=O)(=O)c2ccc([N+](=O)[O-])cc2)N2CCC(C)CC2)CC1 (stereo not drawn) [CBK267506] | 86.2% |  |
| Cc1ccc(SCCNS(=O)(=O)c2cccc([N+](=O)[O-])c2)cc1 [CBK267508] | 81.4% |  |
| O=C(Cn1cc(C(=O)c2ccco2)c2ccccc21)NCCc1c[nH]c2ccccc12 [CBK267509] |  | 97.9% |
| CCN(CC(=O)NCc1ccc(C)cc1)S(=O)(=O)c1ccc(C)cc1 [CBK267511] | 110% |  |
| CS(=O)(=O)N(CC(=O)Nc1ccc(S(N)(=O)=O)cc1)Cc1ccc(Cl)cc1 [CBK267512] | 98.8% |  |
| c1ccc(CCn2c3ccccc3c3nnc(SCc4ccc5nonc5c4)nc32)cc1 [CBK267516] | 97.4% |  |
| O=C(O)CCc1nn2c3ccccc3n(CC(=O)c3cccs3)c2nc1=O [CBK267518] | 99.8% |  |
| O=C(O)CCc1nn2c3ccccc3nc2n(-c2ccccc2)c1=O [CBK267520] | 90.6% |  |
| CCOC(=O)c1c(CN2CCCC2)nc2c3ccccc3ccn12 [CBK267521C] | 107% |  |
| Nc1cc(N)nc(SCC(=O)Nc2nonc2N)n1 [CBK267522] | 89.1% |  |
| CSc1nc(C)cc(OCC(=O)Nc2ccc(Cl)cc2)n1 [CBK267525] | 94.8% |  |
| O=C(CSc1nnc(-c2cccnc2)n1Cc1ccccc1)Nc1ccc(Br)cc1 [CBK267527] | 94.5% |  |
| Cc1ccc(N2CC(C(=O)NCCc3ccc(S(N)(=O)=O)cc3)CC2=O)cc1 (stereo not drawn) [CBK267531] | 84.4% |  |
| Cc1c(C(=O)Nc2ccc(S(=O)(=O)N(C)Cc3ccccc3)cc2)cccc1[N+](=O)[O-] [CBK267534] | 109% |  |
| Cc1onc(-c2ccccc2Cl)c1C(=O)Nc1ccc(S(=O)(=O)NCC2CCCO2)cc1 (stereo not drawn) [CBK267536] | 88.9% |  |
| O=C(Nc1ccc(S(=O)(=O)NCC2CCCO2)cc1)c1cc(-c2ccccc2)nc2ccccc12 (stereo not drawn) [CBK267537] | 84.3% |  |
| N#Cc1ccc(CSc2nnc(COc3ccccc3)n2Cc2ccco2)cc1 [CBK267539] | 87.9% |  |
| CN1CCN(CC(=O)N2N=C(c3c(-c4ccccc4)c4cc(Cl)ccc4[nH]c3=O)CC2c2ccccc2)CC1 (stereo not drawn) [CBK267545] | 88.9% |  |
| COc1cc(NC(=O)CSc2ncnc3sc4c(c23)CCCC4)cc(OC)c1 [CBK267547] | 89.6% |  |
| COc1ccc(CSc2nnc(-c3ccco3)n2N)cc1 [CBK267548] | 90.3% |  |
